≈ marks a conversion by molar mass, not a printed value. Read-outs that look alike come from different tables or passages of the source.

We go through six molecules from patent publication EP3827825A1, “USE OF 3, 4-DIARYLPYRAZOLES AS ANTIBACTERIAL AGENTS” (Wageningen Universiteit, priority 2019, dated 2021).

One assay has as its system S. aureus Newman. Briefly: Minimal inhibitory concentration (MIC), double-dilution in broth, OD600. The class given is cell-based, Staphylococcus aureus Newman. Particulars: unit assumed. In a few lines:
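Twofold broth dilution series of compound from a DMSO stock, against S. aureus Newman from a 1:100-diluted overnight culture. Plates were incubated for 24 hours, then read at OD600. The MIC is the lowest concentration showing no growth.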

Another assay relates to S. suis. The description is as above. The class given is cell-based, Streptococcus suis. The conditions noted are these: unit assumed. Summed up:
(§1)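 MIC determined by standard broth double-dilution: lowest concentration without visible growth after 24 h, assessed by OD600. Highest tested concentration 50 µg/mL.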

The subject of a further assay is P. multocida. Described as above. The format is cell-based, Pasteurella multocida. The conditions noted are these: unit assumed. In a few lines: as §1
The subject of another assay is M. marinum. Briefly: Minimal inhibitory concentration (MIC), Middlebrook 7H9 broth, 3 days at 30 °C. The class given is cell-based, Mycobacterium marinum. The conditions noted are these: unit assumed. In a few lines: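 MICs came from two-fold broth dilutions from 5 mg/mL DMSO stocks, with 100-fold-diluted overnight cultures incubated overnight/24 h; growth was read at OD600 and the MIC taken as the lowest concentration without growth. For M. marinum, Middlebrook 7H9 broth was used with 3 days at 30 °C.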

The next assay deals with E. coli JW5503. The format is cell-based, Escherichia coli. Particulars: unit assumed. In a few lines:
as §1

The test system of another assay is E. faecium Van A. Briefly: Minimal inhibitory concentration (MIC), double-dilution in broth, OD600. The format is cell-based, Enterococcus faecium. The conditions noted are these: unit assumed. In a few lines: as §1
A further assay has as its system HEK293. Briefly: Cell toxicity, Alamar blue assay, 24 hours exposure. The class given is cell-based. Particulars: for IC50: Homo sapiens. Summed up: (§2)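 Alamar blue (resazurin→resorufin) viability in NRK-52E and HEK293 cells after 24 h exposure to HKI compounds at 0.39–500 µg/mL in serum-free medium. Compounds were removed, dye added for 45 min, fluorescence read. Mostly single measurements.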

The test system of a further assay is NRK-52E. The assay is described as above. The class given is cell-based. Particulars: for IC50: Rattus norvegicus, read-out: IC50 NRK-52E (50 mg/mL stock). Summed up:
as §2

[1] abbreviates: HEK293, read-out: IC50 HEK293 (5 mg/mL stock).
The mark [2] stands for this setting: HEK293, read-out: IC50 HEK293 (50 mg/mL stock).

In the case of `CCOc1ccc(-c2[nH]nc(C(F)(F)F)c2-c2ccc(Cl)cc2)c(O)c1` [May-27, 2-[4-(4-chlorophenyl)-5-(trifluoromethyl)-1∼{H}-pyrazol-3-yl]-5-ethoxy-phenol], the MIC S. aureus Newman against S. aureus Newman was 3.13 µg/mL (≈ 8.18 µM). The molecule also had an MIC S. suis with S. suis of 3.13 µg/mL (≈ 8.18 µM). Moreover, in the assay with P. multocida, the MIC P. multocida stood at 25 µg/mL (≈ 65.3 µM). Also, in the assay on M. marinum, the MIC M. marinum turned out to be 50 µg/mL (≈ 131 µM). Also, the MIC E. coli JW5503 against E. coli JW5503 came to 3.13 µg/mL (≈ 8.18 µM). Besides, the MIC E. faecium Van A in the assay with E. faecium Van A came out at 3.13 µg/mL (≈ 8.18 µM). The IC50 in the assay on HEK293 (setting [1]) was determined as 10.8 µg/mL (≈ 28.3 µM); in the assay with HEK293 (setting [2]), 118 µg/mL (≈ 309 µM); with NRK-52E, 181 µg/mL (≈ 472 µM).
Regarding `CCOc1cc(O)c(-c2n[nH]c(C(F)(F)F)c2-c2ccccc2)cc1CC` [Sep-2, 5-ethoxy-4-ethyl-2-[4-phenyl-5-(trifluoromethyl)-1∼{H}-pyrazol-3-yl]phenol], the MIC S. aureus Newman against S. aureus Newman worked out at 6.25 µg/mL (≈ 16.6 µM). The same molecule gave an MIC S. suis against S. suis of 25 µg/mL (≈ 66.4 µM). Besides, in the assay with P. multocida, the MIC P. multocida is > 50 µg/mL. In addition, the MIC M. marinum in the assay on M. marinum was > 50 µg/mL. The MIC E. coli JW5503 with E. coli JW5503 worked out at 25 µg/mL (≈ 66.4 µM). The MIC E. faecium Van A with E. faecium Van A is 25 µg/mL (≈ 66.4 µM). Besides, the IC50 in the assay with HEK293 (setting [1]) was 3.97 µg/mL (≈ 10.5 µM); in the assay with NRK-52E it was ~17.4 µg/mL (≈ 46.2 µM).
In the case of `C=C(C)COc1ccc(-c2[nH]nc(C(F)(F)F)c2-c2ccccc2)c(O)c1` [Sep-9, 5-(2-methylallyloxy)-2-[4-phenyl-5-(trifluoromethyl)-1∼{H}-pyrazol-3-yl]phenol], in the assay on S. aureus Newman, the MIC S. aureus Newman worked out at 6.25 µg/mL (≈ 16.7 µM). In the assay with S. suis, the MIC S. suis was 25 µg/mL (≈ 66.8 µM). The molecule further had an MIC P. multocida against P. multocida of 50 µg/mL (≈ 134 µM). Moreover, the MIC M. marinum against M. marinum was > 50 µg/mL. In the assay with E. coli JW5503, this molecule yielded an MIC E. coli JW5503 of 6.25 µg/mL (≈ 16.7 µM). The molecule also displayed an MIC E. faecium Van A in the assay with E. faecium Van A of 0.78 µg/mL (≈ 2.08 µM). The IC50 was 16.1 µg/mL (≈ 43.1 µM) with HEK293 (setting [1]) and ~10.9 µg/mL (≈ 29 µM) in the assay on NRK-52E.
Regarding `Oc1cc(OCc2ccc(Br)cc2)ccc1-c1n[nH]c(C(F)(F)F)c1-c1ccc(Cl)cc1` [Sep-13, 5-(4-bromobenzyl)oxy-2-[4-(4-chlorophenyl)-5-(trifluoromethyl)-1∼{H}-pyrazol-3-yl]phenol], in the assay on S. aureus Newman, the MIC S. aureus Newman turned out to be 1.56 µg/mL (≈ 2.98 µM). For the same molecule, the MIC S. suis in the assay on S. suis stood at 6.25 µg/mL (≈ 11.9 µM). For the same molecule, the MIC P. multocida in the assay on P. multocida is > 50 µg/mL. Besides, the MIC M. marinum against M. marinum was 25 µg/mL (≈ 47.7 µM). Moreover, in the assay with E. coli JW5503, the MIC E. coli JW5503 was > 50 µg/mL. This molecule came in with an MIC E. faecium Van A with E. faecium Van A of 12.5 µg/mL (≈ 23.9 µM). The “IC50 HEK293 (5 mg/mL stock)” value in the assay on HEK293 (HEK293, 5 mg/mL stock) is given as 16.51. Further, in the assay on NRK-52E (50 mg/mL stock), the “IC50 NRK-52E (50 mg/mL stock)” value is listed as 10.89.
In the case of `Oc1cc(OCc2ccccc2Cl)ccc1-c1n[nH]c(C(F)(F)F)c1-c1ccc(Cl)cc1` [Sep-25, 5-(2-chlorobenzyl)oxy-2-[4-(4-chlorophenyl)-5-(trifluoromethyl)-1∼{H}-pyrazol-3-yl]pheno], in the assay on S. aureus Newman, the MIC S. aureus Newman worked out at 3.13 µg/mL (≈ 6.53 µM). Moreover, the MIC S. suis in the assay with S. suis was 12.5 µg/mL (≈ 26.1 µM). In addition, in the assay with P. multocida, the MIC P. multocida was > 50 µg/mL. The molecule also showed an MIC M. marinum in the assay on M. marinum of 50 µg/mL (≈ 104 µM). For the same molecule, the MIC E. coli JW5503 against E. coli JW5503 is > 50 µg/mL. The MIC E. faecium Van A against E. faecium Van A worked out at 12.5 µg/mL (≈ 26.1 µM). Moreover, the results for the IC50 in the assay with HEK293 (setting [1]), with HEK293 (setting [2]) and in the assay on NRK-52E were 19.3 µg/mL (≈ 40.2 µM), 18.1 µg/mL (≈ 37.7 µM) and 17.3 µg/mL (≈ 36 µM), respectively.
Molecule `C=C(C)COc1ccc(-c2[nH]nc(C(F)(F)F)c2-c2ccc(Cl)cc2)c(O)c1` [Sep-29, 2-[4-(4-chlorophenyl)-5-(trifluoromethyl)-1∼{H}-pyrazol-3-yl]-5-(2-methylallyloxy)phenol] displayed an MIC S. aureus Newman against S. aureus Newman of 3.13 µg/mL (≈ 7.66 µM). Also, in the assay on S. suis, the MIC S. suis is 12.5 µg/mL (≈ 30.6 µM). Also, in the assay with P. multocida, the MIC P. multocida was > 50 µg/mL. Moreover, the MIC M. marinum against M. marinum was > 50 µg/mL. The molecule also displayed an MIC E. coli JW5503 against E. coli JW5503 of 12.5 µg/mL (≈ 30.6 µM). The molecule further displayed an MIC E. faecium Van A against E. faecium Van A of 6.25 µg/mL (≈ 15.3 µM). Besides, the IC50 in the assay with HEK293 (setting [1]) came to 16.4 µg/mL (≈ 40.1 µM); with NRK-52E, 19.9 µg/mL (≈ 48.7 µM).
